Assay results taken from patent US9169254B2, “Spiroimidazolone derivative” (Chugai Seiyaku Kabushiki Kaisha, priority 2009, dated 2015).

The molecules below were run against T1, human PTH1 receptor (Homo sapiens, UniProt Q03431) (assay: In vitro cAMP signal activity in HKRK-B7 cells (LLC-PK1 cells overexpressing the human PTH1 receptor)). Conditions: HKRK-B7 cells; compound at 1×10^−3 M; cAMP produced as percentage of that produced by hPTH(1-34) at 100 nM.
T1 sequence (Q03431 27-593): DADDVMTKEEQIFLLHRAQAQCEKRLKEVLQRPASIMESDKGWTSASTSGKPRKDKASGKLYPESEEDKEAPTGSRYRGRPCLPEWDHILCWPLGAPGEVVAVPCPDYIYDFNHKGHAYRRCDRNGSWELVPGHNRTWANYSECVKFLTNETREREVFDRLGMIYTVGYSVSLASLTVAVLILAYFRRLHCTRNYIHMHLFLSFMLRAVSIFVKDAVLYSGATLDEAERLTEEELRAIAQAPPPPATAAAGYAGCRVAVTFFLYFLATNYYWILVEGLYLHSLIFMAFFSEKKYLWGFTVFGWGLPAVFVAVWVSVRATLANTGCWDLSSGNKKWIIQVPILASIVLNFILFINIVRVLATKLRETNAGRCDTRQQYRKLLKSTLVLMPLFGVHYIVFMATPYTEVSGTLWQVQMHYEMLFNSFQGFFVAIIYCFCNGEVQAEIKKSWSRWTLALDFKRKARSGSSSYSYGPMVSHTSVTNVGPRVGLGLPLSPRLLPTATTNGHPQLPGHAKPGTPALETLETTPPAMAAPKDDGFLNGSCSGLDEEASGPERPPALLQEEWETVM
Type: cell-based

| SMILES | cAMP production activity (%) |
| --- | --- |
| CC1CCCCC1C1=NC2(CCN(S(=O)(=O)c3cccc(Cl)c3)CC2)C(=O)N1 (centres unmarked) [Compound 20, 8-(3-chloro-benzenesulfonyl)-2-(2-methyl-cyclohexyl)-1,3,8-triaza-spiro[4.5]dec-1-en-4-one] | 38 |
| CCCCC1CCC(C2=NC3(CCN(S(=O)(=O)CCc4c(C)cc(N5C(=O)CNC5=O)cc4C)CC3)C(=O)N2)CC1 (centres unmarked) [Compound 677, 3-(4-{2-[2-(4-Butyl-cyclohexyl)-4-oxo-1,3,8-triaza-spiro[4.5]dec-1-ene-8-sulfonyl]-ethyl}-3,5-dimethyl-phenyl)-imidazolidine-2,4-dione] | 69 |
| Cc1cc(S(=O)(=O)NC2CCC(O)CC2)ccc1CCS(=O)(=O)N1CCC2(CC1)N=C(c1cccc(C(F)(F)F)c1)NC2=O (centres unmarked) [Compound 853, N-(4-hydroxy-cyclohexyl)-3-methyl-4-{2-[4-oxo-2-(3-trifluoromethyl-phenyl)-1,3,8-triaza-spiro[4.5]dec-1-ene-8-sulfonyl]-ethyl}-benzenesulfonamide] | 63 |
| Cc1cc2ccc1CCS(=O)(=O)N1CCC3(CC1)N=C(NC3=O)c1cc(cc(C(F)(F)F)c1)OCC/C=C\CN(C)C2=O [Compound 1408] | 5.1 |
| O=C1NC(c2cccc(OC(F)(F)F)c2)=NC12CCN(S(=O)(=O)CCc1ccc3c(ccn3C[C@H](O)CO)c1)CC2 [Compound 850, 8-{2-[1-((S)-2,3-dihydroxy-propyl)-1H-indol-5-yl]-ethanesulfonyl}-2-(3-trifluoromethoxy-phenyl)-1,3,8-triaza-spiro[4.5]dec-1-en-4-one] | 82 |
| O=C1NC(c2ccc(Cl)cc2)=NC12CCN(S(=O)(=O)/C=C/c1cccc3c1ccn3C[C@H](O)CO)CC2 [Compound 250, 2-(4-chloro-phenyl)-8-{(E)-2-[1-((S)-2,3-dihydroxy-propyl)-1H-indol-4-yl]-ethenesulfonyl}-1,3,8-triaza-spiro[4.5]dec-1-en-4-one] | 62 |
| CC(=O)NS(=O)(=O)c1ccc(/C=C/S(=O)(=O)N2CCC3(CC2)N=C(c2cccc(C(F)(F)F)c2)NC3=O)c(C)c1 [Compound 594, N-acetyl-3-methyl-4-{(E)-2-[4-oxo-2-(3-trifluoromethyl-phenyl)-1,3,8-triaza-spiro[4.5]dec-1-ene-8-sulfonyl]-vinyl}-benzenesulfonamide] | 69 |
| CN(C)C(=O)c1ccc(CCS(=O)(=O)N2CCC3(CC2)N=C(c2cccc(OC(F)(F)F)c2)NC3=O)c(F)c1 [Compound 293, 3-fluoro-N,N-dimethyl-4-{2-[4-oxo-2-(3-trifluoromethoxy-phenyl)-1,3,8-triaza-spiro[4.5]dec-1-ene-8-sulfonyl]-ethyl}-benzamide] | 38 |
| CN(C)C(=O)c1ccc(/C=C/S(=O)(=O)N2CCC3(CC2)N=C(c2cccc(OC(F)(F)F)c2)NC3=O)c(F)c1 [Compound 233, 3-fluoro-N,N-dimethyl-4-{(E)-2-[4-oxo-2-(3-trifluoromethoxy-phenyl)-1,3,8-triaza-spiro[4.5]dec-1-ene-8-sulfonyl]-vinyl}-benzamide] | 13 |
| Cc1cc(C(=O)N2CCC(C)(O)CC2)cc(C)c1/C=C/S(=O)(=O)N1CCC2(CC1)N=C(c1cccc(C(F)(F)C(F)(F)F)c1)NC2=O [Compound 1196, 8-{(E)-2-[4-(4-hydroxy-4-methyl-piperidine-1-carbonyl)-2,6-dimethyl-phenyl]-ethenesulfonyl}-2-(3-pentafluoroethyl-phenyl)-1,3,8-triaza-spiro[4.5]dec-1-en-4-one] | 76 |

Now from value to molecule:

| cAMP production activity (%) | SMILES |
| --- | --- |
| 83 | O=C1NC(c2cccc(OC(F)(F)F)c2)=NC12CCN(S(=O)(=O)/C=C/c1cccc3c1ccn3C[C@H](O)CO)CC2 [Compound 526, 8-{(E)-2-[1-((S)-2,3-dihydroxy-propyl)-1H-indol-4-yl]-ethenesulfonyl}-2-(3-trifluoromethoxy-phenyl)-1,3,8-triaza-spiro[4.5]dec-1-en-4-one] |
| 102 | [2H]C([2H])([2H])C([2H])([2H])C1=CC[C@H](C2=NC3(CCN([S@TB18](=O)(=O)/C=C/c4c(C)cc(N(C)C(N)=O)cc4C)CC3)C(=O)N2)CC1 [Compound 1129, 1-(4-{(E)-2-[2-(4-[1,1,2,2,2-^2H5]ethyl-cyclohex-3-enyl)-4-oxo-1,3,8-triaza-spiro[4.5]dec-1-ene-8-sulfonyl]-vinyl}-3,5-dimethyl-phenyl)-1-methyl-urea] |
| 5.4 | Cc1cc2ccc1CCS(=O)(=O)N1CCC3(CC1)N=C(NC3=O)c1cc(cc(C(F)(F)F)c1)OCC/C=C/COCCNC2=O [Compound 1426] |
| 61 | CC(=O)Nc1ccc(CCS(=O)(=O)N2CCC3(CC2)N=C([C@H]2CC[C@H](OCCCF)CC2)NC3=O)c(C)c1 [Compound 915, N-[4-(2-{2-[4-(3-fluoro-propoxy)-cyclohexyl]-4-oxo-1,3,8-triaza-spiro[4.5]dec-1-ene-8-sulfonyl}-ethyl)-3-methyl-phenyl]-acetamide] |
| 98 | Cc1cc(N(C)C(N)=O)cc(C)c1CCS(=O)(=O)N1CCC2(CC1)N=C(CCCCCCc1ccccc1)NC2=O [Compound 1349, 1-(3,5-dimethyl-4-{2-[4-oxo-2-(6-phenyl-hexyl)-1,3,8-triaza-spiro[4.5]dec-1-ene-8-sulfonyl]-ethyl}-phenyl)-1-methyl-urea] |
| 78 | Cc1cc(C(=O)N2CCC3(CC2)COC3)cc(C)c1CCS(=O)(=O)N1CCC2(CC1)N=C(c1ccc(F)c(C(F)(F)F)c1)NC2=O [Compound 804, 8-{2-[2,6-dimethyl-4-(2-oxa-7-aza-spiro[3.5]nonane-7-carbonyl)-phenyl]-ethanesulfonyl}-2-(4-fluoro-3-trifluoromethyl-phenyl)-1,3,8-triaza-spiro[4.5]dec-1-en-4-one] |
| 77 | Cc1cc(C(=O)N(C)C)ccc1CCS(=O)(=O)N1CCC2(CC1)N=C(c1cccc(OC(F)(F)C(F)F)c1)NC2=O [Compound 140, 3,N,N-trimethyl-4-(2-{4-oxo-2-[3-(1,1,2,2-tetrafluoro-ethoxy)-phenyl]-1,3,8-triaza-spiro[4.5]dec-1-ene-8-sulfonyl}-ethyl)-benzamide] |
| 81 | Cc1cc(C(=O)N(C)C)ccc1CCS(=O)(=O)N1CCC2(CC1)N=C(c1cc(F)cc(C(F)(F)F)c1)NC2=O [Compound 115, 4-{2-[2-(3-fluoro-5-trifluoromethyl-phenyl)-4-oxo-1,3,8-triaza-spiro[4.5]dec-1-ene-8-sulfonyl]-ethyl}-3,N,N-trimethyl-benzamide] |
| 56 | Cc1cc(C(=O)N2CCC(C)(O)CC2)cc(C)c1/C=C/S(=O)(=O)N1CCC2(CC1)N=C(c1ccc(Cl)c(OCC(F)(F)C(F)F)c1)NC2=O [Compound 1229, 2-[4-chloro-3-(2,2,3,3-tetrafluoro-propoxy)-phenyl]-8-{(E)-2-[4-(4-hydroxy-4-methyl-piperidine-1-carbonyl)-2,6-dimethyl-phenyl]-ethenesulfonyl}-1,3,8-triaza-spiro[4.5]dec-1-en-4-one] |
| 13 | Cc1cc2ccc1CCS(=O)(=O)N1CCC3(CC1)N=C(NC3=O)c1cc(cc(C(F)(F)F)c1)OCCC(O)C(O)CCCN(C)C2=O (centres unmarked) [Compound 1430] |
